# Experimental data as given in patent US12497610B2, “Functional genomics using CRISPR-CAS systems for saturating mutagenesis of non-coding elements, compositions, methods, libraries and applications thereof” (THE BROAD INSTITUTE, INC., priority 2015, dated 2025).
# Test system: human BCL11A erythroid enhancer
# Assay: Tiled pooled CRISPR-Cas9 screen for in situ functional mapping of the human BCL11A erythroid enhancer (HbF-high/HbF-low sort, sgRNA deep sequencing)
# Type: cell-based
# Conditions: for Enrichment Score: HbF enrichment, human library NGG and NGG RC sgRNAs filtered for enrichment score >0.259; for Dropout Score: human library sgRNAs that produced HbF enrichment over 0.259
# From the text: Every 20-mer sequence upstream of an NGG or NAG PAM sequence on the sense or anti-sense strand was identified for both the human and mouse orthologous +55, +58, and +62 DNase hypersensitive site (DHS) as well as BCL11A/BCL11a exon 2. Relative to the human hg 19 reference genome, a reference was used with the following substitutions to approximate a common low-HbF associated haplotype: rs1427407-G, rs1896293-T, rs6706648-T, rs6738440-G, rs7606173-C. Each of the sgRNA oligos were synthesized as previously described (37,41,64) and cloned using a Gibson Assembly master mix (New England Biolabs) into lentiGuide-Puro (Addgene plasmid ID 52963) BsmBI digested, PCR purified, and dephosphorylated. Gibson Assembly products were transformed to electrocompetent E. cloni cells (Lucigen). Sufficient colonies were isolated to ensure 90X library coverage for both human and mouse libraries. Plasmid libraries were deep sequenced (described below) to confirm representation.
# Tiled Pooled CRISPR-Cas9 Screen for In Situ Functional Mapping the Human BCL11A Erythroid Enhancer.
# HUDEP clone 2 (HUDEP-2) was utilized as previously described by from Nakamura and colleagues (49). HUDEP-2 cells were expanded in StemSpan SFEM (Stem Cell Technologies) supplemented with 10^−6 M dexamethasone (Sigma), 100 ng/mL human stem cell factor (SCF) (R&D), 3 IU/mL erythropoietin (Amgen), 1% L-glutamine (Life Technologies), and 2% penicillin/streptomycin (Life Technologies). 1 μg/mL doxycycline (Sigma) was included in the culture to induce expression of the human papilloma virus type 16 E6/E7 genes (49). HUDEP-2 cells were differentiated in Iscove's Modified Dulbecco's Medium (IMDM) supplemented with 330 μg/mL halo-transferrin (Sigma), 10 μg/mL recombinant human insulin (Sigma), 2 IU/mL heparin (Sigma), 5% human solvent detergent pooled plasma AB (Rhode Island Blood Center), 3 IU/mL erythropoietin (Amgen), 100 ng/mL human stem cell factor (SCF) (R&D), 1 μg/mL doxycycline (Sigma), 1% L-glutamine (Life Technologies), and 2% penicillin/streptomycin (Life Technologies).
# HUDEP-2 cells with stable Cas9 expression were transduced at low multiplicity with the human sgRNA library lentivirus pool while in expansion medium. […] Cell numbers were maintained throughout the experiment at levels adequate to exceed 1000× representation of the library. 10 μg/mL blasticidin (Sigma) and 1 μg/mL puromycin (Sigma) were added 24 hours after transduction to select for lentiviral library integrants in cells with Cas9. Cells were cultured in expansion media for one week followed by differentiation media for an additional week.
# Intracellular staining was performed by fixing cells with 0.05% glutaraldehyde (grade II) (Sigma) for 10 minutes at room temperature. Cells were centrifuged for 5 minutes at 350 g and then resuspended in 0.1% Triton-X100 (Life Technologies) for 5 minutes at room temperature for permeabilization. Triton X-100 was diluted with phosphate buffered saline (PBS) and then centrifuged at 350 g for 15 minutes. Cells were stained with anti-human antibodies for HbF (clone HbF-1 with FITC or APC conjugation; Life Technologies) and B-hemoglobin antibody (clone 37-8 with PerCP-Cy5 or PE conjugation; Santa Cruz) for 20 minutes in the dark. Cells were washed to remove unbound antibody prior to FACS analysis. 0.2 μg HbF and 2 μg of HbA CB-hemoglobin) antibodies were used per 5 million cells. Control cells exposed to a nontargeting sgRNA sample and BCL11A exon 2 were used as negative and positive controls respectively to establish flow cytometry conditions. Populations of cells with the top and bottom 10% of expression of HbF were sorted by FACS.
# After sorting the HbF-high and HbF-low pools, library preparation and deep sequencing was performed as previously described (37). Briefly, genomic DNA was extracted using the Qiagen Blood and Tissue kit. […]
Substance,Enrichment Score,Dropout Score
BCL_02015_H_exon2 (guide AAGAATGGCTTCAAGAGGCT; chemistry not given here),1.064,−1.349
"BCL_00088_H_D55 (guide GCATCATCCTGGTACCAGGANGG; listed as DNA, chemistry not given here)",0.4386,−0.3713
"BCL_01617_H_D58 (guide CTAACAGTTGCTTTTATCACNGGRC; listed as DNA, chemistry not given here)",2.495,−0.7193
"BCL_00239_H_D62 (guide GCCTGTAATCTCAGCTACTCNGG; listed as DNA, chemistry not given here)",1.916,−6.031
"BCL_00251_H_exon2 (guide GGCCCGTTGGGAGCTCCAGANGG; listed as DNA, chemistry not given here)",1.911,−1.236
"BCL_01624_H_D58 (guide GGTTTGGCCTCTGATTAGGGNGGRC; listed as DNA, chemistry not given here)",1.472,−0.7713
"BCL_02011_H_exon2 (guide CTGGAGCTCCCAACGGGCCGNGGRC; listed as DNA, chemistry not given here)",0.6044,0.7912
"BCL_01640_H_D58 (guide TCGGTGGCCGTTTGCCCAGGNGGRC; listed as DNA, chemistry not given here)",0.3658,−1.013
"BCL_00065_H_D55 (guide GCCAACAGTGATAACCAGCANGG; listed as DNA, chemistry not given here)",0.4886,−0.5415
"BCL_02003_H_exon2 (guide AAATAAGAATGTCCCCCAATNGGRC; listed as DNA, chemistry not given here)",1.085,−0.09695
"BCL_00266_H_exon2 (guide TCCCGTGGAGGTTGGCATCCNGG; listed as DNA, chemistry not given here)",0.5889,−0.1802
"BCL_00092_H_D55 (guide TTCCCTTCCTAGAATTGGCCNGG; listed as DNA, chemistry not given here)",0.4035,−0.4369
"BCL_01637_H_D58 (guide CCATCGGTGGCCGTTTGCCCNGGRC; listed as DNA, chemistry not given here)",0.669,−0.5016
"BCL_00008_H_D55 (guide TGAAACCAAGCTTCCTCTGCNGG; listed as DNA, chemistry not given here)",0.2741,−0.2303
"BCL_00249_H_exon2 (guide TGAACCAGACCACGGCCCGTNGG; listed as DNA, chemistry not given here)",1.175,−0.8221
"BCL_00233_H_D62 (guide CAGGAGGATCACCTGAGGTCNGG; listed as DNA, chemistry not given here)",0.6113,−9.202
"BCL_00082_H_D55 (guide TCACAGGGTGTGCCCTGAGANGG; listed as DNA, chemistry not given here)",0.4174,−1.087
"BCL_01999_H_exon2 (guide ATCTCGATTGGTGAAGGGGANGGRC; listed as DNA, chemistry not given here)",0.6204,−0.7601
"BCL_00262_H_exon2 (guide CCTCTGCTTAGAAAAAGCTGNGG; listed as DNA, chemistry not given here)",1.001,−1.352

Substance,Enrichment Score,Dropout Score
"BCL_01631_H_D58 (guide ATTAGGGTGGGGGCGTGGGTNGGRC; listed as DNA, chemistry not given here)",0.4098,−0.1615
"BCL_00264_H_exon2 (guide AAAAGCATCCAATCCCGTGGNGG; listed as DNA, chemistry not given here)",0.5578,−1.376
"BCL_00135_H_D58 (guide CCATCTCCCTAATCTCCAATNGG; listed as DNA, chemistry not given here)",0.2985,−0.04502
"BCL_00259_H_exon2 (guide CCAGATGAACTTCCCATTGGNGG; listed as DNA, chemistry not given here)",3.266,−3.321
"BCL_01829_H_D62 (guide TGTGGGGTGGCTGTTTAAAGNGGRC; listed as DNA, chemistry not given here)",0.496,−0.1469
"BCL_00229_H_D62 (guide CCCAGCACTTTGGGAGGCCGNGG; listed as DNA, chemistry not given here)",0.6113,−8.717
"BCL_00267_H_exon2 (guide TGGCATCCAGGTCACGCCAGNGG; listed as DNA, chemistry not given here)",2.049,−2.006
"BCL_00031_H_D55 (guide CTGGCAGACCCTCAAGAGCANGG; listed as DNA, chemistry not given here)",0.3216,−1.354
"BCL_00261_H_exon2 (guide CACAAACGGAAACAATGCAANGG; listed as DNA, chemistry not given here)",3.329,−2.543
"BCL_00263_H_exon2 (guide GAAAAAAGCATCCAATCCCGNGG; listed as DNA, chemistry not given here)",0.6213,−2.115
"BCL_01989_H_exon2 (guide CTGCTATGTGTTCCTGTTTGNGGRC; listed as DNA, chemistry not given here)",0.6201,0.0332
"BCL_02007_H_exon2 (guide GGCACTGCCCACAGGTGAGGNGGRC; listed as DNA, chemistry not given here)",3.351,−1.662
"BCL_01669_H_D58 (guide CCAGCTGAAGAAAGAACATTNGGRC; listed as DNA, chemistry not given here)",0.3196,−0.00075
"BCL_01629_H_D58 (guide TCTGATTAGGGTGGGGGCGTNGGRC; listed as DNA, chemistry not given here)",1.104,0.1807
"BCL_01998_H_exon2 (guide TTTCATCTCGATTGGTGAAGNGGRC; listed as DNA, chemistry not given here)",0.3489,−0.1426
"BCL_00064_H_D55 (guide TGCCAACAGTGATAACCAGCNGG; listed as DNA, chemistry not given here)",0.5108,−0.3581
"BCL_01826_H_D62 (guide TTTGCTCTTCTCCAGGGTGTNGGRC; listed as DNA, chemistry not given here)",0.4003,−0.3386
"BCL_00093_H_D55 (guide TCCCTTCCTAGAATTGGCCTNGG; listed as DNA, chemistry not given here)",0.5283,−0.5616
"BCL_00012_H_D55 (guide AAGTGAGCCAGGTGATAGAANGG; listed as DNA, chemistry not given here)",0.3511,−0.01983
